The values below come from patent US20180093308A1, “METHANOGENESIS CONTROL DURING ENVIRONMENTAL APPLICATIONS USING ANTIMETHANOGENIC REAGENTS” (Innovative Environmental Technologies, Inc, priority 2016, published 2018).

In this experiment the test system is Archaea. In words: Laboratory Study 4: methane concentration in control and test samples with AMRs. In kind it is cell-based. The procedure: Use of diallyl sulfide, which may be considered a synthetic garlic oil (GOS), was evaluated for its ability to control Archaea compared to the effects of other potential AMRs such as natural/pressed Garlic Oil (GO) and dehydrated Garlic Powder (GP). Control samples with and without contaminants were captured along with test samples that included contaminants and different concentrations (250 ppm and 500 ppm) of different AMRs (GO, GOS and GP). The concentration of methane in each of the samples was measured at 0, 9, 16 and 23 days.

As to `C=CCSCC=C` [GOS, diallyl sulfide], the “control response in terms of methane production” value (250 ppm and 500 ppm, 23 days incubation) was “best control response”. Further, the “length and magnitude of antimethanogenic responses” value (500 ppm lasting longer than 250 ppm) was “concentration dependent”.
